ChEMBL document CHEMBL3399989, “PTP1B inhibitors from stems of Angelica keiskei (Ashitaba)” (Bioorg Med Chem Lett, 2015)
pIC50: −log10 of the molar value. Active and inactive are the calls of the source. The rule behind the calls is not given here.

Assays:
[1] = biological target: T1, Tyrosine-protein phosphatase non-receptor type 1 (Homo sapiens) (UniProt P18031); assay: Inhibition of PTP1B (unknown origin) at 20 ug/ml using pNPP substrate measured after 3 mins by colorimetric assay
T1 sequence (whole entry): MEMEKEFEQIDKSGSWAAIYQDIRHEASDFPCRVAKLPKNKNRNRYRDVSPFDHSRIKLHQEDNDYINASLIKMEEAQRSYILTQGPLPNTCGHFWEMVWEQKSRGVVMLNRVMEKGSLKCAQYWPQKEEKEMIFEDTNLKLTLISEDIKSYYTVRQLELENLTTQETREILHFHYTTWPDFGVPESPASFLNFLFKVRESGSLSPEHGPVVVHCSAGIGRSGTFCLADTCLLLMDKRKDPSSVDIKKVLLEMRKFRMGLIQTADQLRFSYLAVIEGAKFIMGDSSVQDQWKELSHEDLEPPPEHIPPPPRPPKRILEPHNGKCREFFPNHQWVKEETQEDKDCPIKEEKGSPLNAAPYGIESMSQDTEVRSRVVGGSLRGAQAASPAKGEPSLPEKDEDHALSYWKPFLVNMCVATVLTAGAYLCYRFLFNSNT

[2] = biological target: T2, Tyrosine-protein phosphatase non-receptor type 1 (Homo sapiens, UniProt P18031); assay: Inhibition of PTP1B (unknown origin) using pNPP substrate measured after 3 mins by colorimetric assay
T2 sequence (P18031 whole entry): T1 sequence (whole entry)

[3] = biological target: T1, Tyrosine-protein phosphatase non-receptor type 1 (Homo sapiens); assay: Fast-binding inhibition of PTP1B (unknown origin) using pNPP substrate by colorimetric method based enzyme kinetics assay
[4] = biological target: T1, Tyrosine-protein phosphatase non-receptor type 1 (Homo sapiens); assay: Inhibition of PTP1B (unknown origin) using pNPP substrate by colorimetric method based enzyme kinetics assay; details: TDE = time-dependent effect
[5] = biological target: T1, Tyrosine-protein phosphatase non-receptor type 1 (Homo sapiens); assay: Competitive inhibition of PTP1B (unknown origin) assessed as increase in substrate Km at 1.5 to 6 uM using pNPP substrate by colorimetric method based Lineweaver-Burk plot method
[6] = biological target: T1, Tyrosine-protein phosphatase non-receptor type 1 (Homo sapiens); assay: Competitive inhibition of PTP1B (unknown origin) assessed as unchanged Vmax level at 1.5 to 6 uM using pNPP substrate by colorimetric method based Lineweaver-Burk plot method

| SMILES | inhibition [1] | pIC50 [2] | other results |
| --- | --- | --- | --- |
| C=C(C)C(=O)Cc1c(OC)ccc(C(=O)/C=C/c2ccc(O)cc2)c1O | 85.2% | 5.63 | inhibition [3]: Active; inhibition [4]: tde; inhibition [5]: Active; inhibition [6]: Active |
| C/C=C(/C)C(=O)O[C@H]1[C@@H](O)c2c(ccc3ccc(=O)oc23)OC1(C)C | < 50% |  |  |
| COc1ccc(C(=O)/C=C/c2ccc(O)cc2)c2c1[C@H](O)[C@H](O)C(C)(C)O2 | < 50% |  |  |
| C/C=C(/C)C(=O)O[C@H]1c2c(ccc3ccc(=O)oc23)OC(C)(C)[C@H]1O | < 50% |  |  |
| CC(C)C(=O)O[C@H]1Cc2c(ccc3ccc(=O)oc23)OC1(C)C | 93.7% | 4.52 |  |
| O=c1cc(-c2ccc(O)c(O)c2)oc2cc(O[C@@H]3O[C@H](CO)[C@@H](O)[C@H](O)[C@H]3O)cc(O)c12 | < 50% |  |  |
| O=c1c(O[C@@H]2OC[C@H](O)[C@H](O)[C@H]2O)c(-c2ccc(O)c(O)c2)oc2cc(O)cc(O)c12 | < 50% |  |  |
| C=C(C)C(O)Cc1c(OC)ccc(C(=O)/C=C/c2ccc(O)cc2)c1O (centres undefined) [XANTHOANGELOL D] | 96.8% | 4.95 |  |
| CC(C)=CCC/C(C)=C/Cc1c(O)ccc(C(=O)/C=C/c2ccc(O)cc2)c1O [XANTHOANGELOL] | 79.8% | 5.30 |  |
| C=C(C)C(Cc1c(OC)ccc(C(=O)/C=C/c2ccc(O)cc2)c1O)OO (centres undefined) | 99.4% | 5.41 |  |
| COc1ccc(C(=O)/C=C/c2ccc(O)cc2)c2c1[C@H](OC)[C@H](O)C(C)(C)O2 | < 50% |  |  |
| COc1ccc(C(=O)/C=C/c2ccc(O)cc2)c(O)c1C/C=C(\C)CCC=C(C)C [XANTHOANGELOL F] | 96.8% | 5.39 |  |
| COc1ccc(C(=O)/C=C/c2ccc(O)cc2)c(O)c1CC=C(C)C | 86% | 5.14 |  |
| COc1c2ccoc2cc2oc(=O)ccc12 [BERGAPTEN] | 98.4% | 4.93 |  |
| COc1c2occc2cc2ccc(=O)oc12 | < 50% |  |  |
| O=c1c(O[C@@H]2O[C@H](CO)[C@H](O)[C@H](O)[C@H]2O)c(-c2ccc(O)c(O)c2)oc2cc(O)cc(O)c12 | < 50% |  |  |
| COc1ccc(C(=O)/C=C/c2ccc(O)cc2)c2c1C(O)C(C(C)(C)O)O2 (centres undefined) | < 50% |  |  |
| CCOC1c2c(OC)ccc(C(=O)/C=C/c3ccc(O)cc3)c2OC1C(C)(C)O (centres undefined) | 91.9% | 4.95 |  |
| C=C[C@@H](O)C#CC#C[C@@H](O)/C=C\CCCCCCC [FALCARINDIOL] | 97.8% | 4.50 |  |
| CC1(C)Oc2ccc3ccc(=O)oc3c2[C@@H](O)[C@H]1O (relative stereo) | 92.3% | 4.40 |  |
| C[C@@H]1O[C@@H](Oc2c(-c3ccc(O)c(O)c3)oc3cc(O)cc(O)c3c2=O)[C@H](O)[C@H](O)[C@H]1O [QUERCITRIN] | 64.4% | 4.41 |  |
| C/C=C(/C)C(=O)O[C@@H]1Cc2c(ccc3ccc(=O)oc23)OC1(C)C [JATAMANSIN] | 93.5% | 4.45 |  |
